Molecular target: T1, Tyrosine-protein phosphatase non-receptor type 11 (Homo sapiens, UniProt Q06124)
T1 sequence (Q06124 whole entry): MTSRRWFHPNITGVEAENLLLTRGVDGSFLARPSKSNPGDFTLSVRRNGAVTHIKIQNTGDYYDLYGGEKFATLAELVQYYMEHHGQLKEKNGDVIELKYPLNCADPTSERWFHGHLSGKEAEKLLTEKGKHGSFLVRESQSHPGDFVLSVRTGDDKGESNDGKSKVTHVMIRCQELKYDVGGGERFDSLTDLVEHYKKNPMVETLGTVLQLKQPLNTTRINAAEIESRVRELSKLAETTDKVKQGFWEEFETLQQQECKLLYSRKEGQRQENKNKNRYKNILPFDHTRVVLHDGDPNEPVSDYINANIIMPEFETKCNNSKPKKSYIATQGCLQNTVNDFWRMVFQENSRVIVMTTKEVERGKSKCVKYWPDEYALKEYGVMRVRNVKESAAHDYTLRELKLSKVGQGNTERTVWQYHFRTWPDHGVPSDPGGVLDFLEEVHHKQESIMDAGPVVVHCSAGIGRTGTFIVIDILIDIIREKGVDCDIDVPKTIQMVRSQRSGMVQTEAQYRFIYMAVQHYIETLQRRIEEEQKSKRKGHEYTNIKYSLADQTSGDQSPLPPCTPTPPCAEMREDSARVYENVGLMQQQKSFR
Test: SHP2 Allosteric Inhibition Assay
Description: The phosphatase reaction was conducted in 384-well black polystyrene plates (Corning, Cat #3575) with flat bottom, low edge and non-binding surface at room temperature and 25 μl final volume of the following buffer condition: 60 mM HEPES, pH 7.2, 75 mM NaCl, 75 mM KCl, 1 mM EDTA, 0.05% P-20, 5 mM DTT.The following experiments were conducted to monitor the SHP2 inhibition by the compounds (at concentrations of 0.0003-100 μM) in this invention:Wherein, incubate 0.5 nM SHP2 with 0.5 μM peptide IRS1_pY1172 (dPEG8) pY1222 (sequence: H2N-LN (pY) IDLDLV (dPEG8) LST (pY) ASINFQK-amide) (SEQ ID NO: 1) (WO2016/203406A1). After incubation at 25° C. for 30-60 minutes, the alternative substrate DiFMUP (Invitrogen, cat #D6567) was added to the reaction and incubated at 25° C. for 30 minutes. The reaction was then […] by adding 5 μL of a 160 μM bpV (Phen) solution (Enzo Life Sciences cat #ALX-270-204). The fluorescence signal was monitored using a microplate reader (VARIOSKAN LUX, Thermo) with excitation and emission wavelengths of 340 nm and 450 nm, respectively. The inhibitory dose-response curve is analyzed using a standardized IC50 regression curve based on control-based normalization.

- IC50: 2.62 nM
Structure (SMILES): C[C@@H]1OCC2(CCN(c3cnc(Sc4cccc(-c5cscn5)c4Cl)cn3)CC2)[C@@H]1N [US11827644, Example 33]

Reference: BindingDB's records for patent US11827644 (Suzhou Genhouse Pharmaceutical, 2023)
